Test results published in patent US3998963A, “Tertiary butyl substituted carbamoyl oxime pesticides” (priority 1975, dated 1976).
In brackets after ≈: the same amount, converted by molar mass.

Assays:
Assay type in all cases: in vivo
[1] = system: southern armyworm (Spodoptera eridania, (Cram.)); assay: Southern Armyworm Leaf Spray Bait Test
Method: (§1) Suspensions of the test compouns were prepared by dissolving one gram of compound in 50 milliliters of acetone in which had been dissolved 0.1 gram (10 percent of the weight of compound) of an alkylphenoxy polyethoxyethanol surfactant, as an emulsifying or dispersing agent. The resulting solution was mixed into 150 milliliters of water to give roughly 200 milliliters of a suspension containing the compound in finely divided form. The thus-prepared stock suspension contained 0.5 percent by weight of compound. The test concentrations in parts per million by weight employed in the tests described hereinbelow were obtained by appropriate dilutions of the stock suspension with water. The test procedures were as follows:
Southern Armyworm Leaf Spray Bait Test
Larvae of the southern armyworm (Spodoptera eridania, (Cram.)), reared on Tendergreen bean plants at a temperature of 80°±5° F. and a relative humidity of 50±5 per cent, constituted the test insects.
The test compounds were formulated by diluting the stock suspension with water to give a suspension containing 500 parts of test compound per million parts of final formulation. Potted Tendergreen bean plants of standard height and age were placed on a revolving turntable and sprayed with 100-110 milliliters of test compound formulation by use of a DeVilbiss spray gun set at 10 psig air pressure. This application, which lasted 25 seconds, was sufficient to wet plants to run-off. As a control, 100-110 milliliters of a water-acetone-emulsifier solution containing no test compound were also sprayed on infested plants. When dry, the paired leaves were separated and each one was placed in a 9 centimeter Petri dish lined with moistened filter paper. Five randomly selected larvae were introduced into each dish and the dishes were closed. The closed dishes were labeled and held at 80°-85° F. for 3 days. Although the larvae could easily consume the whole leaf within 24 hours, no more food was added. Larvae which were unable to move the length of the body, even upon stimulation by prodding, were considered dead. Per cent mortality was recorded for various concentration levels.
(§2) In Table 1 are presented insect and rat toxicity data (bait tests) on a comparative basis of the compounds described above. […] Rat toxicity is also more meaningfully compared on the basis of molar weight LD50 values. The relative efficacy of the parent compounds as compared to the previously known derivatives and as compared to the new compounds of this invention is also shown in Table 1. The ratio of efficacy as contact poisons (immersion/bait) of the compounds tested against Armyworm and House Fly is presented in Table 2 along with the results of the phytotoxicity tests of the compounds on bean, corn, tomato and cotton.

[2] = system: bean aphid (Aphis fabae Scop.); assay: Bean Aphid Foliage Spray Test; conditions: foliar, 24 hour holding period, read-out: Insect LD50, Aphid
Method: as §1
Bean Aphid Foliage Spray Test
Adults and nymphal stages of the bean aphid (Aphis fabae Scop.) reared on potted dwarf nasturtium plants at 65°-70° F. and 50-70 per cent relative humidity, constituted the test insects. For testing purposes, the number of aphids per pot was standardized to 100-150 by trimming plants containing excess aphids.
The test compounds were formulated by diluting the stock suspension with water to give a suspension containing 500 parts of test compound per million parts of final formulation.
The potted plants (one pot per compound tested) infested with 100-150 aphids, were placed on a revolving turntable and sprayed with 100 -110 milliliters of test compound formulation by use of a DeVilbiss spray gun set at 40 psig. air pressure. This application, which lasted 25 seconds, was sufficient to wet the plants to run-off. As a control, 100-110 milliliters of a water-acetone-emulsifier solution containing no test compound were also sprayed on infested plants. After spraying, the pots were placed on their sides on a sheet of white standard mimeograph paper which had peen previously ruled to facilitate counting. Temperature and humidity in the test room during the 24 hour holding period were 65°-70° F. and 50-70 per cent, respectively. Aphids which fell onto the paper and were unable to remain standing after being uprighted were considered dead. Aphids remaining on the plants were observed closely for movement and those which were unable to move the length of the body upon stimulation by prodding were considered dead. Per cent mortality was recorded for various concentration levels.

[3] = system: Mexican bean beetle (Epilachna varivestis, Muls.); assay: Mexican Bean Beetle Leaf Spray Test; conditions: 72 h, 3 days, read-out: Insect LD50, Beetle
Method: as §1
Mexican Bean Beetle Leaf Spray Test
Fourth instar lavae of the Mexican bean beetle (Epilachna varivestis, Muls.), reared on Tendergreen bean plants at a temperature of 80°±5° F. and 50±5 per cent relative humidity, were the test insects.
The test compounds were formulated by diluting the stock suspension with water to give a suspension containing 500 parts of test compound per million parts of final formulation. Potted Tendergreen bean plants of standard height and age were placed on a revolving turntable and sprayed with 100-110 milliliters of test comound formulation by use of a DeVilbiss spray gun set at 10 psig air pressure. This application, which lasted 25 seconds, was sufficient to wet plants to run-off. As a control, 100-110 milliliters of a water-acetone-emulsifier solution containing no test compound were also sprayed on infested plants. When dry, the paired leaves were separated and each was placed in a 9 centimeter Petri dish lined with moistened filter paper. Five randomly selected larvae were introduced into each dish, and the dishes were closed. The closed dishes were labeled and held at a temperature of 80°±5° F, for 3 days. Although the larvae could easily consume the leaf within 24 to 48 hours, no more food was added. Larvae which were unable to move the length of the body, even upon stimulation, were considered dead.

[4] = system: house flies (Musca domestica, L.); assay: Fly Bait Test; conditions: Musca domestica, 24 hours, read-out: Insect LD50, Housefly
Method: as §1
Four to six day old adult house flies (Musca domestica, L.), reared according to the specifications of the Chemical Specialities Manufacturing Association (Blue Book, McNair-Dorland Co., N.Y. 1954; pages 243-244, 261) under controlled conditions of 80°±5° F. and 50±5 per cent relative humidity, were the test insects. The flies were immobilized by anesthetizing with carbon dioxide and twenty five immobilized individuals, males and females, were transferred to a cage consisting of a standard food strainer about five inches in diameter which was inverted over a wrapping-paper covered surface. The test compounds were formulated by diluting the stock suspension with a 10 per cent (by weight) sugar solution to give a suspension containing 500 parts of test compound per million parts of final formulation, by weight. Ten milliliters of the test formulation were added to a souffle cup containing a 1-inch square of an absorbent cotton pad. This bait cup was introduced and centered on the blotting paper under the food strainer prior to admitting the anesthetized flies. The caged flies were allowed to feed on the bait for 24 hours, at a temperature of 80°±5° F. and the relative humidity of 50±5 per cent.
as §2

[5] = system: two-spotted mite (Tetranychus urticae Koch); assay: Mite Foliage Spray Test; conditions: foliar, 144 h, 6 days, read-out: Insect LD50, Mite
Method: as §1
Adults and nymphal stage of the two-spotted mite (Tetranychus urticae Koch), reared on Tendergreen bean plants at 80±5 per cent relative humidity, were the test organisms. Infested leaves from a stock culture were placed on the primary leaves of two bean plants 6 to 8 inches in height, growing in a 21/2 inch clay pot. 150-200 Mites, a sufficient number for testing, transferred from the excised leaves to the fresh plants in a period of twenty four hours. Following the twenty four hour transfer period, the excised leaves were removed from the infested plants. The test compounds were formulated by diluting the stock suspension with water to give a suspension containing 500 parts of test compound per million parts of final formulation. The potted plants (one pot per compound) were placed on a revolving turntable and sprayed with 100-110 milliliters of test compound formulation by use of a DeVilbiss spray gun set at 40 psig. air pressure. This application, which lasted 25 seconds, was sufficient to wet the plants to run-off. As a control, 100-110 milliliters of a water solution containing acetone and emulsifier in the same concentrations as the test compound formulation, but containing no test compound, were also sprayed on infested plants. The sprayed plants were held at 80±5 per cent relative humidity for 6 days, after which a mortality count of motile forms was made. Microscopic examination for motile forms was made on the leaves of the test plants. Any individual which was capable of locomotion upon prodding was considered living.

**Q.** Which LC50 ([1]; Spodoptera eridania, 72 h, leaf spray bait, 3 days, read-out: Insect LD50, Armyworm) does the source give for `CCSC(C)=NOC(=O)N(C)Sc1ccc(C(C)(C)C)cc1` [Compound 10] here?
**A.** 14 µg/mL (≈ 41.1 µM)

**Q.** What about the “(b) relative efficacy of derivative vs parent compound, Armyworm” value ([1]; bait, formula of footnote b is drawing 8) of the same molecule?
**A.** 1.52

**Q.** And the LC50 [2]?
**A.** 5 µg/mL (≈ 14.7 µM)

**Q.** And the LC50 [3]?
**A.** 20 µg/mL (≈ 58.7 µM)

**Q.** And the LC50 [4]?
**A.** 13 µg/mL (≈ 38.2 µM)

**Q.** And the LC50 [5]?
**A.** > 500 µg/mL
